From patent US12600725B2 (Memorial Sloan-Kettering Cancer Center, priority 2013, dated 2026) come the findings set out here.

The subject of experiment [1] is MDA-MB-468 cells. The experiment in a line: Growth inhibition assay (Alamar blue). Type of experiment: cell-based. As to conditions: Homo sapiens. The method, then: We evaluated the antiproliferative effects of inhibitors using the dye Alamar blue. This reagent offers a rapid objective measure of cell viability in cell culture, and it uses the indicator dye resazurin to measure the metabolic capacity of cells, an indicator of cell viability. Briefly, MDA-MB-468 cells were plated on Costar 96-well plates at 1500 cells/well. Cells were allowed to incubate for 24 h at 37° C. before drug treatment. Drugs were added in triplicate at the indicated concentrations, and the plate was incubated for 72 h. Alamar Blue (440 μM) was added, and the plate read 6 h later using Softmax Pro 6 software (Fluorescence intensity mode, excitation 530 nm, emission 580 nm, with 560 nm dichroic mirror). Results were analyzed using GraphPad Prism 5. The percentage cell growth inhibition was calculated by comparing fluorescence readings obtained from treated versus control cells, accounting for initial cell population (time zero).
For orientation: The colour change of resazurin is a common sign of viable cells or microbes.

Experiment [2] deals with Hsp90α (Homo sapiens, UniProt P07900). Kind of experiment: biochemical. To be noted: FP competition, 6 nM Cy3B-GM, 10 nM protein, 4° C. for 24 h.
Experiment [3] addresses Grp94 (Canis lupus familiaris, UniProt P41148). As to conditions: read-out: Grp94; FP competition, 6 nM Cy3B-GM, 10 nM protein, 4° C. for 24 h.
The target in experiment [4] is T1, Trap-1 (Homo sapiens, UniProt Q12931).
T1 sequence (Q12931 60-704): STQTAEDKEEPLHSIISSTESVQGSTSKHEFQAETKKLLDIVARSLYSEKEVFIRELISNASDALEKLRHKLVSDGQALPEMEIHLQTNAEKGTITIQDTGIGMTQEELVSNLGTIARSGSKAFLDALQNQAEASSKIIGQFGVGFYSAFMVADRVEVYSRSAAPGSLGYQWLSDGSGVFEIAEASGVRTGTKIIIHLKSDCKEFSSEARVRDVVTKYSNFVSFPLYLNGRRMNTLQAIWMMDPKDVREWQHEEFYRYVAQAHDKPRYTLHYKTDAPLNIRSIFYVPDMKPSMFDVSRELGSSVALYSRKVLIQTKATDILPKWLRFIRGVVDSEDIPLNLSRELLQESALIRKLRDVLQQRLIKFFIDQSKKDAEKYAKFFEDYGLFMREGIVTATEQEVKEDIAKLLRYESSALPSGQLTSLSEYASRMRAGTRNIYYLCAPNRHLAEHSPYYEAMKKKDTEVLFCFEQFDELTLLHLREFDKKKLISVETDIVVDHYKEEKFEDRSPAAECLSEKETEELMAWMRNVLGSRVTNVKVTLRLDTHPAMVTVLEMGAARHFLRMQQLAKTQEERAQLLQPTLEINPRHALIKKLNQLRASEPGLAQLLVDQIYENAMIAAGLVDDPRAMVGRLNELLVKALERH
To be noted: relative to Hsp90.

The target of experiment [5] is T1, Trap-1. The experiment in a line: biochemical.
In experiment [6] the target is Hsp90β (Homo sapiens, UniProt P08238).

Molecules are shown by their SMILES.

Hsp90β, sequence (P08238 whole entry): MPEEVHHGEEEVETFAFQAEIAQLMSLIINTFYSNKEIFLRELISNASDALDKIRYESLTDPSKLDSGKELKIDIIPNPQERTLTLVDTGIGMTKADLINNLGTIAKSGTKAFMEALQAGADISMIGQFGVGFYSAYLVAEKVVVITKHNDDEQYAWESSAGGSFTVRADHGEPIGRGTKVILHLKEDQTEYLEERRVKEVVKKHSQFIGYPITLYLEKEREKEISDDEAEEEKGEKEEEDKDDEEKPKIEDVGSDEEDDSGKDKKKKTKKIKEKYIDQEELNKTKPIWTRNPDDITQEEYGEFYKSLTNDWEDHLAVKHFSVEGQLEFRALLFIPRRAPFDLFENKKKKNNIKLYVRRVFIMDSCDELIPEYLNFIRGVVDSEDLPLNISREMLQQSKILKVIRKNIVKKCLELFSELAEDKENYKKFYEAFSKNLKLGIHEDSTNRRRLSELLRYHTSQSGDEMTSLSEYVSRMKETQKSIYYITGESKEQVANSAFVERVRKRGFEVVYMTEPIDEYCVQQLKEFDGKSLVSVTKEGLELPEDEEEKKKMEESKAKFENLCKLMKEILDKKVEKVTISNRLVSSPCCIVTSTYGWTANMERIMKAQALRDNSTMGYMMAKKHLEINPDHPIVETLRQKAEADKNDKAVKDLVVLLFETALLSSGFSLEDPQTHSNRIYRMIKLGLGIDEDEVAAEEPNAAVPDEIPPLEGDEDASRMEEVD
Grp94, sequence (P41148 with tags, fused parts or gaps DELINS287-327GGGG): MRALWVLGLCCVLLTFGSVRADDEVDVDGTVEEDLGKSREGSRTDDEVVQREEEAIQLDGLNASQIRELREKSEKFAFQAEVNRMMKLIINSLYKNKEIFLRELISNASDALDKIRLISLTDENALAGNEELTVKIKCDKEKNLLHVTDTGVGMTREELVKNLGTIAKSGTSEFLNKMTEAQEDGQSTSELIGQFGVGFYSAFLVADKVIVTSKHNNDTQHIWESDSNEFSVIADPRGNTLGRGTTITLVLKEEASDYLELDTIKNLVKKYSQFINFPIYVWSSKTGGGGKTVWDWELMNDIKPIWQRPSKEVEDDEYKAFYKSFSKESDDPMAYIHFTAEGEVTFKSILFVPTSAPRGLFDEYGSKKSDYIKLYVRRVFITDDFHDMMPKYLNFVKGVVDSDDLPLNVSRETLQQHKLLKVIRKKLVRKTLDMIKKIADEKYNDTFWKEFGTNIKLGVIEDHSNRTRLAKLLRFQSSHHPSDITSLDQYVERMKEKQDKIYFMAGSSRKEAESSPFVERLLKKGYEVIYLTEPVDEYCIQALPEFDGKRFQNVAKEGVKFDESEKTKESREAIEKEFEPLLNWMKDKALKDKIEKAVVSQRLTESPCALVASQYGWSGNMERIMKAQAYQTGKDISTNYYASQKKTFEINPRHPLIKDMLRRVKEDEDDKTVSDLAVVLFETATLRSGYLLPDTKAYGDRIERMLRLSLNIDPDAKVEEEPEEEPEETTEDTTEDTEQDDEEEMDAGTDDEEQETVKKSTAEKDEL

Take `CC(C)NCCCn1c(Sc2cc(Cl)cc(I)c2)nc2c(N)ncnc21` [HJP-V-149, 8-((3-chloro-5-iodophenyl)thio)-9-(3-(isopropylamino)propyl)-9H-purin-6-amine]: the IC50 in experiment [1] was found to be 0.125 µM; in experiment [2], 43.2 µM; in experiment [3] it was 0.24 µM.
For the compound `CC(C)CNCCCn1c(Sc2cc(Cl)cc(I)c2)nc2c(N)ncnc21` [HJP-VI-4, 8-((3-chloro-5-iodophenyl)thio)-9-(3-(isobutylamino)propyl)-9H-purin-6-amine], the IC50 in experiment [1] stood at 0.212 µM; in experiment [2] it was 41.8 µM; in experiment [3] it was 0.29 µM.
Take `CC(C)(C)CNCCCn1c(Sc2cc(Cl)cc(I)c2)nc2c(N)ncnc21` [HJP-VI-5, 8-((3-chloro-5-iodophenyl)thio)-9-(3-(neopentylamino)propyl)-9H-purin-6-amine]: the IC50 in experiment [1] was 0.562 µM; in experiment [2], greater than 25 µM; in experiment [3], 0.49 µM.
For `CC(C)(C)NCCCn1c(Sc2cc(Cl)cc(I)c2)nc2c(N)ncnc21` [HJP-VI-6, 9-(3-(tert-butylamino)propyl)-8-((3-chloro-5-iodophenyl)thio)-9H-purin-6-amine] the same measures were 0.314 µM, 27.8 µM and 0.54 µM.
For `C=C(C)c1cc(Cl)cc(Sc2nc3c(N)ncnc3n2CCCNC(C)C)c1` [HJP-VI-12, 8-((3-chloro-5-(prop-1-en-2-yl)phenyl)thio)-9-(3-(isopropylamino)propyl)-9H-purin-6-amine], the IC50 in experiment [1] was 0.063 µM; in experiment [2], 20 µM; in experiment [3], 0.21 µM.
For `C#Cc1cc(Cl)cc(Sc2nc3c(N)ncnc3n2CCCNC(C)C)c1` [HJP-VI-18, 8-((3-chloro-5-ethynylphenyl)thio)-9-(3-(isopropylamino)propyl)-9H-purin-6-amine] the same measures were 0.122 µM, 152 µM and 0.9 µM.
With `CC(C)NCCCn1c(Sc2cc(Cl)cc(-c3ccc[nH]3)c2)nc2c(N)ncnc21` [HJP-VI-28, 8-((3-chloro-5-(1H-pyrrol-2-yl)phenyl)thio)-9-(3-(isopropylamino)propyl)-9H-purin-6-amine], the values for the IC50 in experiment [1] and in experiment [3] were 0.286 µM and 0.22 µM, respectively.
Take `CC(C)NCCCn1c(Sc2cc(Cl)cc(-c3ccn[nH]3)c2)nc2c(N)ncnc21` [HJP-VI-29, 8-((3-chloro-5-(1H-pyrazol-5-yl)phenyl)thio)-9-(3-(isopropylamino)propyl)-9H-purin-6-amine]: the values for the IC50 in experiment [1], in experiment [2] and in experiment [3] were 0.516 µM, 25.9 µM and 1.2 µM, respectively.
Regarding `C=Cc1cc(Cl)cc(Sc2nc3c(N)ncnc3n2CCCNC(C)C)c1` [HJP-VI-31, 8-((3-chloro-5-vinylphenyl)thio)-9-(3-(isopropylamino)propyl)-9H-purin-6-amine], the IC50 in experiment [1] is 0.129 µM; in experiment [2], 48.9 µM; in experiment [3], 0.63 µM.
For `CC(C)NCCCn1c(Sc2ccc(Cl)cc2I)nc2c(N)ncnc21` [HJP-VI-36, 8-((4-chloro-2-iodophenyl)thio)-9-(3-(isopropylamino)propyl)-9H-purin-6-amine] the same measures were 5.85 µM, 3.4 µM and 0.21 µM.
Take `CC(C)NCCCn1c(Sc2cc(Cl)cc(-c3ccoc3)c2)nc2c(N)ncnc21` [HJP-VI-39, 8-((3-chloro-5-(furan-3-yl)phenyl)thio)-9-(3-(isopropylamino)propyl)-9H-purin-6-amine]: the IC50 stood at 0.166 µM in experiment [1], 21.3 µM in experiment [2] and 0.28 µM in experiment [3].
In the case of `CC(C)NCCCn1c(Sc2ccc(Cl)cc2-c2ccn[nH]2)nc2c(N)ncnc21` [HJP-VI-43, 8-((4-chloro-2-(1H-pyrazol-5-yl)phenyl)thio)-9-(3-(isopropylamino)propyl)-9H-purin-6-amine], the values for the IC50 in experiment [1], in experiment [2] and in experiment [3] were 6.58 µM, 1.5 µM and 0.45 µM, respectively.
With `CC(C)NCCCn1c(Sc2cc(Cl)cc(-c3cc[nH]c3)c2)nc2c(N)ncnc21` [HJP-VI-44, 8-((3-chloro-5-(1H-pyrrol-3-yl)phenyl)thio)-9-(3-(isopropylamino)propyl)-9H-purin-6-amine], the figures for the IC50 in experiment [1], in experiment [2] and in experiment [3] were 0.917 µM, 12.3 µM and 0.83 µM, respectively.
`CC(C)NCCCn1c(Sc2cc(Cl)cc(-c3ncco3)c2)nc2c(N)ncnc21` [HJP-VI-49, 8-((3-chloro-5-(oxazol-2-yl)phenyl)thio)-9-(3-(isopropylamino)propyl)-9H-purin-6-amine]: the IC50 in experiment [1] turned out to be 3.12 µM; in experiment [2] it was 29.6 µM; in experiment [3] it was 1.3 µM.
On to `C/C=C/c1cc(Cl)cc(Sc2nc3c(N)ncnc3n2CCCNC(C)C)c1` [HJP-VI-63, (E)-8-((3-chloro-5-(prop-1-en-1-yl)phenyl)thio)-9-(3-(isopropylamino)propyl)-9H-purin-6-amine], for which the IC50 in experiment [1] is 0.226 µM; in experiment [2] it was greater than 50 µM; in experiment [3], 0.34 µM.
With `C=C(c1cc(Cl)cc(Sc2nc3c(N)ncnc3n2CCCNC(C)C)c1)C(F)(F)F` [HJP-VI-70, 8-((3-chloro-5-(3,3,3-trifluoroprop-1-en-2-yl)phenyl)thio)-9-(3-(isopropylamino)propyl)-9H-purin-6-amine], the IC50 in experiment [1] amounted to 2.16 µM; in experiment [2], 13.8 µM; in experiment [3], 0.153 µM.
Take `C/C=C\c1cc(Cl)cc(Sc2nc3c(N)ncnc3n2CCCNC(C)C)c1` [HJP-VI-78, (Z)-8-((3-chloro-5-(prop-1-en-1-yl)phenyl)thio)-9-(3-(isopropylamino)propyl)-9H-purin-6-amine]: the IC50 came out at 0.58 µM in experiment [1], 18.6 µM in experiment [2] and 0.214 µM in experiment [3].
For the compound `CC(C)(C)CNCCCn1c(Sc2cc(Cl)cc(Cl)c2)nc2c(N)nc(F)nc21` [HJP-VI-85, 8-((3,5-dichlorophenyl)thio)-2-fluoro-9-(3-(neopentylamino)propyl)-9H-purin-6-amine], the results for the IC50 in experiment [1], in experiment [2] and in experiment [3] were 0.164 µM, greater than 50 µM and 0.186 µM, respectively.
As to `CC(C)(C)NCCCn1c(Sc2cc(Cl)cc(Cl)c2)nc2c(N)nc(F)nc21` [HJP-VI-86, 9-(3-(tert-butylamino)propyl)-8-((3,5-dichlorophenyl)thio)-2-fluoro-9H-purin-6-amine], the values for the IC50 in experiment [1], in experiment [2] and in experiment [3] were 0.053 µM, 20.9 µM and 0.156 µM, respectively.
In the case of `CCNC(=O)c1noc(-c2cc(C(C)C)c(O)cc2O)c1-c1ccc(CN2CCOCC2)cc1` [NVP-AUY922], the “decrease in binding efficacy for Trap-1” value in experiment [4] was 2 fold.
Take `COc1cc(Cc2nc3c(N)ncnc3n2C(C)C)cc(OC)c1OC` [PU-27]: the IC50 in experiment [5] is greater than 300 µM; in experiment [2], greater than 500 µM; in experiment [3] it was 59.3 ± 2.69 µM; in experiment [6], greater than 250 µM.
Turning to `CCC[C@H](C)n1c(Cc2cc(OC)c(OC)c(OC)c2)nc2c(N)ncnc21` [PU-34], the IC50 in experiment [5] was 227 ± 6.6 µM; in experiment [2], greater than 500 µM; in experiment [3], 91.3 ± 2.16 µM; in experiment [6], greater than 250 µM.
As for `C#CCCCn1cnc(N)c2nc(Sc3ccc(OC)cc3OC)nc1-2` [PU-H44], the IC50 in experiment [5] is greater than 100 µM; in experiment [2], greater than 100 µM; in experiment [3] it was 46.8 µM; in experiment [6], greater than 100 µM.
`C[C@H](NCCCn1c(Sc2cc(Cl)cc(Cl)c2)nc2c(N)ncnc21)C1CC1` [SO-III-127B, (S)-9-(3-((1-cyclopropylethyl)amino)propyl)-8-((3,5-dichlorophenyl)thio)-9H-purin-6-amine]: the IC50 in experiment [1] worked out at 0.83 µM; in experiment [2] it was 40.4 µM; in experiment [3] it was 0.345 µM.
Turning to `C[C@@H](NCCCn1c(Sc2cc(Cl)cc(Cl)c2)nc2c(N)ncnc21)C1CC1` [SO-III-128B, (R)-9-(3-((1-cyclopropylethyl)amino)propyl)-8-((3,5-dichlorophenyl)thio)-9H-purin-6-amine], the values for the IC50 in experiment [1], in experiment [2] and in experiment [3] were 0.84 µM, 35.6 µM and 0.276 µM, respectively.
